From the NIST ThermoML archive (doi:10.1016/j.jct.2017.10.002)
Several values for one entry are separate records, joined by “and”; a condition that tells them apart may be missing. Identical values can stand only once. ± gives the expanded uncertainty stated by the source.

Settings: 101.33 kPa, relaxation calorimetry

CCc1ncc[n-]1.CCc1ncc[n-]1.[Zn+2] [zinc(II) 2-ethylimidazolide]
molar entropy
Settings	Crystal	Glass
1 K	–	0.008253 ± 0.00074 J/K/mol
2 K	–	0.0244 ± 0.002 J/K/mol
3 K	–	0.06286 ± 0.0052 J/K/mol
4 K	–	0.1418 ± 0.012 J/K/mol
5 K	0.3545 ± 0.029 J/K/mol and 0.1203 ± 0.0097 J/K/mol and 0.3132 ± 0.025 J/K/mol	0.2736 ± 0.022 J/K/mol
6 K	0.5863 ± 0.047 J/K/mol and 0.2089 ± 0.017 J/K/mol and 0.5177 ± 0.042 J/K/mol	0.464 ± 0.037 J/K/mol
7 K	0.8825 ± 0.071 J/K/mol and 0.3306 ± 0.027 J/K/mol and 0.7801 ± 0.063 J/K/mol	0.7139 ± 0.057 J/K/mol
8 K	1.241 ± 0.1 J/K/mol and 0.4909 ± 0.039 J/K/mol and 1.099 ± 0.088 J/K/mol	1.022 ± 0.082 J/K/mol
9 K	1.66 ± 0.13 J/K/mol and 0.6925 ± 0.056 J/K/mol and 1.472 ± 0.12 J/K/mol	1.385 ± 0.11 J/K/mol
10 K	2.135 ± 0.13 J/K/mol and 0.9364 ± 0.057 J/K/mol and 1.895 ± 0.12 J/K/mol	1.801 ± 0.11 J/K/mol
15 K	5.252 ± 0.32 J/K/mol and 2.784 ± 0.17 J/K/mol and 4.686 ± 0.29 J/K/mol	4.579 ± 0.28 J/K/mol
20 K	9.321 ± 0.57 J/K/mol and 5.606 ± 0.34 J/K/mol and 8.386 ± 0.51 J/K/mol	8.3 ± 0.51 J/K/mol
25 K	14.04 ± 0.85 J/K/mol and 9.263 ± 0.56 J/K/mol and 12.76 ± 0.78 J/K/mol	12.73 ± 0.78 J/K/mol
30 K	19.18 ± 1.2 J/K/mol and 13.59 ± 0.83 J/K/mol and 17.67 ± 1.1 J/K/mol	17.72 ± 1.1 J/K/mol
35 K	24.62 ± 1.5 J/K/mol and 18.45 ± 1.1 J/K/mol and 23 ± 1.4 J/K/mol	23.14 ± 1.4 J/K/mol
40 K	30.28 ± 1.8 J/K/mol and 23.75 ± 1.4 J/K/mol and 28.69 ± 1.7 J/K/mol	28.89 ± 1.8 J/K/mol
45 K	36.11 ± 2.2 J/K/mol and 29.41 ± 1.8 J/K/mol and 34.67 ± 2.1 J/K/mol	34.85 ± 2.1 J/K/mol
50 K	42.08 ± 2.6 J/K/mol and 35.35 ± 2.2 J/K/mol and 40.84 ± 2.5 J/K/mol	40.96 ± 2.5 J/K/mol
60 K	54.27 ± 3.3 J/K/mol and 47.75 ± 2.9 J/K/mol and 53.56 ± 3.3 J/K/mol	53.5 ± 3.3 J/K/mol
70 K	66.58 ± 4.1 J/K/mol and 60.58 ± 3.7 J/K/mol and 66.61 ± 4.1 J/K/mol	66.3 ± 4 J/K/mol
80 K	78.9 ± 4.8 J/K/mol and 73.57 ± 4.5 J/K/mol and 79.79 ± 4.9 J/K/mol	79.14 ± 4.8 J/K/mol
90 K	91.13 ± 5.6 J/K/mol and 86.51 ± 5.3 J/K/mol and 92.92 ± 5.7 J/K/mol	91.86 ± 5.6 J/K/mol
100 K	103.17 ± 6.3 J/K/mol and 99.26 ± 6 J/K/mol and 105.89 ± 6.5 J/K/mol	104.37 ± 6.4 J/K/mol
110 K	114.97 ± 7 J/K/mol and 111.76 ± 6.8 J/K/mol and 118.62 ± 7.2 J/K/mol	116.61 ± 7.1 J/K/mol
120 K	126.51 ± 7.7 J/K/mol and 123.99 ± 7.5 J/K/mol and 131.07 ± 8 J/K/mol	128.56 ± 7.8 J/K/mol
130 K	137.77 ± 8.4 J/K/mol and 135.92 ± 8.3 J/K/mol and 143.23 ± 8.7 J/K/mol	140.23 ± 8.5 J/K/mol
140 K	148.77 ± 9.1 J/K/mol and 147.57 ± 9 J/K/mol and 155.11 ± 9.4 J/K/mol	151.61 ± 9.2 J/K/mol
150 K	159.51 ± 9.7 J/K/mol and 158.95 ± 9.7 J/K/mol and 166.72 ± 10 J/K/mol	162.74 ± 9.9 J/K/mol
160 K	170.01 ± 10 J/K/mol and 170.08 ± 10 J/K/mol and 178.07 ± 11 J/K/mol	173.62 ± 11 J/K/mol
170 K	180.29 ± 11 J/K/mol and 180.98 ± 11 J/K/mol and 189.19 ± 12 J/K/mol	184.28 ± 11 J/K/mol
180 K	190.36 ± 12 J/K/mol and 191.68 ± 12 J/K/mol and 200.09 ± 12 J/K/mol	194.75 ± 12 J/K/mol
190 K	200.25 ± 12 J/K/mol and 202.19 ± 12 J/K/mol and 210.8 ± 13 J/K/mol	205.03 ± 12 J/K/mol
200 K	209.96 ± 13 J/K/mol and 212.52 ± 13 J/K/mol and 221.34 ± 13 J/K/mol	215.14 ± 13 J/K/mol
210 K	219.52 ± 13 J/K/mol and 222.71 ± 14 J/K/mol and 231.73 ± 14 J/K/mol	225.11 ± 14 J/K/mol
220 K	228.95 ± 14 J/K/mol and 232.75 ± 14 J/K/mol and 241.97 ± 15 J/K/mol	234.95 ± 14 J/K/mol
230 K	238.24 ± 15 J/K/mol and 242.68 ± 15 J/K/mol and 252.1 ± 15 J/K/mol	244.67 ± 15 J/K/mol
240 K	247.43 ± 15 J/K/mol and 252.5 ± 15 J/K/mol and 262.12 ± 16 J/K/mol	254.28 ± 15 J/K/mol
250 K	256.52 ± 16 J/K/mol and 262.22 ± 16 J/K/mol and 272.04 ± 17 J/K/mol	263.8 ± 16 J/K/mol
260 K	265.53 ± 16 J/K/mol and 271.86 ± 17 J/K/mol and 281.89 ± 17 J/K/mol	273.23 ± 17 J/K/mol
270 K	274.45 ± 17 J/K/mol and 281.43 ± 17 J/K/mol and 291.67 ± 18 J/K/mol	282.58 ± 17 J/K/mol
273.15 K	277.25 ± 17 J/K/mol and 284.43 ± 17 J/K/mol and 294.74 ± 18 J/K/mol	285.51 ± 17 J/K/mol
280 K	283.31 ± 17 J/K/mol and 290.94 ± 18 J/K/mol and 301.39 ± 18 J/K/mol	291.87 ± 18 J/K/mol
290 K	292.12 ± 18 J/K/mol and 300.39 ± 18 J/K/mol and 311.06 ± 19 J/K/mol	301.09 ± 18 J/K/mol
298.15 K	299.26 ± 18 J/K/mol and 308.06 ± 19 J/K/mol and 318.92 ± 19 J/K/mol	308.57 ± 19 J/K/mol
300 K	300.87 ± 18 J/K/mol and 309.8 ± 19 J/K/mol and 320.7 ± 20 J/K/mol	310.26 ± 19 J/K/mol
